In patent publication US3960834A, “Method for preparing 3-(methylmercaptol) propylaminobleomycin” (priority 1973, dated 1976):
Like-named read-outs stand apart in the source and are kept apart here.

Legend:
[1] = system: Ehrlich ascites carcinoma cells; details: for Mean surviving days: intraperitoneally once a day for 10 days, observed up to 50 days; for ED50: Table 3, maximum dose level at which they survive 100 to 200% of the survival days for the control; for LD50 /ED50 = Index: mouse, in vivo, ip
[2] = system: Mycobacterium smegmatis 607; test: antimicrobial activity against Mycobacterium smegmatis 607; format: cell-based
ICR mouse bearing cancer = system: ICR mouse bearing cancer
Description: Mice of ICR/JCL strain (male 5 weeks old, five for one group) are inoculated with Ehrlich ascites carcinoma cells in a dose of 2 millions/mouse.
LD50 is calculated by Behrens-Karber's method from the group poisoned at high dose levels.

solubility = format: physicochemical
[3] = system: Ehrlich ascites carcinoma cells; test: animal or person; details: Mus musculus, ip
[4] = ICR mouse bearing cancer, daily intraperitoneal administration for 10 days
[5] = Table 3, Behrens-Karber's method, from the group poisoned at high dose levels

## 3-(S,S-dimethylmercapto)propylaminobleomycin [Bleomycin A2, reference compound]
[1]; 0.19 mg/kg
  Mean surviving days: 13.6 days
[1]; 0.39 mg/kg
  Mean surviving days: 15.4 days
[1]; 0.78 mg/kg
  Mean surviving days: 17.2 days
[1]; 1.56 mg/kg
  Mean surviving days: > 33 days
[1]; 3.12 mg/kg
  Mean surviving days: > 36 days
[1]; 6.25 mg/kg
  Mean surviving days: > 28.4 days
[1]; 12.5 mg/kg
  Mean surviving days: 25 days
[1]; 25 mg/kg
  Mean surviving days: 10.8 days
[1]
  ED50: 0.78
  LD50 /ED50 = Index: 12
[2]
  antimicrobial activity (potency): 1000 mcg potency/mg
ICR mouse bearing cancer; [4]
  LD50: 12.5 mg/kg
ICR mouse bearing cancer; [5]
  LD50: 9.4

## CSCCCNC(=O)c1csc(-c2csc(CCNC(=O)[C@@H](NC(=O)[C@@H](C)[C@H](O)[C@@H](C)NC(=O)[C@@H](NC(=O)c3nc([C@H](CC(N)=O)NC[C@H](N)C(N)=O)nc(N)c3C)[C@@H](O[C@@H]3O[C@@H](CO)[C@@H](O)[C@H](O)[C@@H]3O[C@H]3O[C@H](CO)[C@@H](O)[C@H](OC(N)=O)[C@@H]3O)c3cnc[nH]3)[C@@H](C)O)n2)n1 [Demethylbleomycin A2, 3-(methylmercapto)propylaminobleomycin]
[1]; 0.19 mg/kg
  Mean surviving days: 20.2 days
[1]; 0.39 mg/kg
  Mean surviving days: 24.0 days
[1]; 0.78 mg/kg
  Mean surviving days: 31.2 days
[1]; 1.56 mg/kg
  Mean surviving days: 28.6 days
[1]; 3.12 mg/kg
  Mean surviving days: 34.6 days
[1]; 6.25 mg/kg
  Mean surviving days: 49 days
[1]; 12.5 mg/kg
  Mean surviving days: 40.5 days
[1]; 25 mg/kg
  Mean surviving days: 29.0 days
[1]
  ED50: 0.78
  LD50 /ED50 = Index: 23
[2]
  antimicrobial activity (potency): 2,458 mcg potency/mg
ICR mouse bearing cancer; [4]
  LD50: 22.5 mg/kg
ICR mouse bearing cancer; [5]
  LD50: 18.0
ICR mouse bearing cancer; from LD50, ICR mouse bearing cancer, daily intraperitoneal for 10 days
  toxicity compared with bleomycin A2: decreased to about half as much
solubility; ethanol, propanol, butanol, ethyl acetate, ether, acetone, petroleum ether, benzene, and toluene
  solubility in organic solvents: insoluble
solubility; water and methanol
  solubility in water and methanol: soluble

## CO[C@@]12[C@H](COC(N)=O)C3=C(C(=O)C(C)=C(N)C3=O)N1C[C@@H]1N[C@@H]12 [Mitomycin C]
[3]
  ED50: 0.39 mg/kg
